Source: patent US20120004228A1, “Bis Aromatic Compounds for Use as LTC4 Synthase Inhibitors” (BIOLIPOX AB, priority 2009, published 2012)

Biological target: T1, Recombinant human LTC4 synthase (Homo sapiens, UniProt Q16873)
T1 construct: made in house; host or cells: Pichia pastoris ('Piccia pastoralis' [sic])
T1 sequence (Q16873 1-150): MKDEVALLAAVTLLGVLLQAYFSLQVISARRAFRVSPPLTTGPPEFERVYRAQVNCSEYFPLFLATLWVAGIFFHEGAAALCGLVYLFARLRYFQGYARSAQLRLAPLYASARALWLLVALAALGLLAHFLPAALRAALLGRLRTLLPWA
Test: In vitro LTC4 synthase assay (LTA4 to LTC4, HTRF detection)
Type: biochemical
Method: In the assay, LTC4 synthase catalyses the reaction where the substrate LTA4 is converted to LTC4. Recombinant human LTC4 synthase is expressed in Piccia pastoralis and the purified enzyme is dissolved in 25 mM tris-buffer pH 7.8 supplemented with 0.1 mM glutathione (GSH) and stored at −80° C. The assay is performed in phosphate buffered saline (PBS) pH 7.4 and 5 mM GSH in 384-well plates.
The following is added chronologically to each well:
1. 48 μL LTC4 synthase in PBS with 5 mM GSH. The total protein concentration in this solution is 0.5 μg/mL. 2. 1 μL inhibitor in DMSO (final concentration 10 μM). 3. Incubation of the plate at room temperature for 10 min. 4. 1 μL LTA4 (final concentration 2.5 μM). 5. Incubation of the plate at room temperature for 5 min. 6. 10 μL of the incubation mixture is analysed using homogenous time resolved fluorescent (HTRF) detection.

IC50 [nM]	Structure (SMILES)
366	COc1ccccc1N(C)c1cc(C(=O)O)cc(C(=O)c2ccc(N(C)c3ccc(Cl)cc3)cn2)c1 [9:22, 3-{5-[(4-Chlorophenyl)(methyl)amino]picolinoyl}-5-[(2-methoxyphenyl)(methyl)-amino]benzoic acid]
932	COc1ccccc1N(C(C)=O)c1cc(C(=O)O)cc(C(=O)c2ccc(N(C)c3ccc(Cl)cc3)cn2)c1 [9:24, 3-{5-[(4-Chlorophenyl)(methyl)amino]picolinoyl}-5-[N-(2-methoxyphenyl)-acetamido]benzoic acid]
88	COc1ccc(N(CC2(C)COC2)c2cc(C(=O)O)cc(C(=O)c3ccc(N(C)c4ccc(Cl)cc4)cn3)c2)cc1 [9:25, 3-{5-[(4-Chlorophenyl)(methyl)amino]picolinoyl}-5-{(4-methoxyphenyl)-[(3-methyloxetan-3-yl)methyl]amino}benzoic acid]
466	COCC(=O)N(c1ccccc1)c1cc(C(=O)O)cc(C(=O)c2ccc(N(C)c3ccc(Cl)cc3)cn2)c1 [9:26, 3-{5-[(4-Chlorophenyl)(methyl)amino]picolinoyl}-5-(2-methoxy-N-phenylacet-amido)benzoic acid]
137	COc1ccc(N(C)c2cc(C(=O)O)cc(C(=O)c3ccc(N(C)c4ccc(Cl)cc4)cn3)c2)cc1 [9:28, 3-{5-[(4-Chlorophenyl)(methyl)amino]picolinoyl}-5-[(4-methoxyphenyl)(methyl)-amino]benzoic acid]
420	CN(c1ccc(Cl)cc1)c1ccc(C(=O)c2cc(Nc3ccc4c(c3)OCO4)cc(C(=O)O)c2)nc1 [9:29, 3-{5-[(4-Chlorophenyl)(methyl)amino]picolinoyl}-5-(3,4-methylenedioxy-phenylamino)benzoic acid]
197	CN(c1ccc(Cl)cc1)c1ccc(C(=O)c2cc(C(=O)O)cc(N(C)c3ccc4c(c3)OCO4)c2)nc1 [9:30, 3-{5-[(4-Chlorophenyl)(methyl)amino]picolinoyl}-5-[(3,4-methylenedioxy-phenyl)(methyl)amino]benzoic acid]
525	COc1cccc(Nc2cc(C(=O)O)cc(C(=O)c3ccc(N(C)c4ccc(Cl)cc4)cn3)c2)c1 [9:31, 3-{5-[(4-Chlorophenyl)(methyl)amino]picolinoyl}-5-(3-methoxyphenylamino)-benzoic acid]
353	COc1ccc(Nc2cc(C(=O)O)cc(C(=O)c3ccc(N(C)c4ccc(Cl)cc4)cn3)c2)cc1 [9:32, 3-{5-[(4-Chlorophenyl)(methyl)amino]picolinoyl}-5-(4-methoxyphenylamino)-benzoic acid]
463	CN(c1ccc(Cl)cc1)c1ccc(C(=O)c2cc(Nc3ccc4c(c3)OCCO4)cc(C(=O)O)c2)nc1 [9:33, 3-{5-[(4-Chlorophenyl)(methyl)amino]picolinoyl}-5-(3,4-ethylenedioxy-phenylamino)benzoic acid]
216	CN(c1ccc(Cl)cc1)c1ccc(C(=O)c2cc(C(=O)O)cc(N(C)c3ccc4c(c3)OCCO4)c2)nc1 [9:34, 3-{5-[(4-Chlorophenyl)(methyl)amino]picolinoyl}-5-[(3,4-ethylenedioxy-phenyl)(methyl)amino]benzoic acid]
70	CN(c1ccc(Cl)cc1)c1ccc(C(=O)c2cc(C(=O)O)cc(N(CCCCO)c3ccc4c(c3)OCCO4)c2)nc1 [9:35, 3-{5-[(4-Chlorophenyl)(methyl)amino]picolinoyl}-5-[(3,4-ethylenedioxyphenyl)-(4-hydroxybutyl)amino]benzoic acid]
1000	CN(c1ccc(Cl)cc1)c1ccc(C(=O)c2cc(C(=O)O)cc(N3CCOCC3)c2)nc1 [9:36, 3-{5-[(4-Chlorophenyl)(methyl)amino]picolinoyl}-5-(4-morpholinyl)benzoic acid]
506	CN(c1ccc(Cl)cc1)c1ccc(C(=O)c2cc(C(=O)O)cc(N3CCCCC3)c2)nc1 [9:37, 3-{5-[(4-Chlorophenyl)(methyl)amino]picolinoyl}-5-(1-piperidinyl)benzoic acid]
470	CN(c1ccc(Cl)cc1)c1ccc(C(=O)c2cc(C(=O)O)cc(N(C(=O)CO)c3ccccc3)c2)nc1 [9:38, 3-{5-[(4-Chlorophenyl)(methyl)amino]picolinoyl}-5-(2-hydroxy-N-phenylacet-amido)benzoic acid]
126	CN(c1ccc(Cl)cc1)c1ccc(C(=O)c2cc(C(=O)O)cc(N(CCCCO)c3cccnc3)c2)nc1 [9:39, 3-{5-[(4-Chlorophenyl)(methyl)amino]picolinoyl}-5-[(4-hydroxybutyl)(3-pyridyl)-amino]benzoic acid]
362	CN(c1ccc(Cl)cc1)c1ccc(C(=O)c2cc(C(=O)O)cc(N(CCCCO)c3ccccn3)c2)nc1 [9:40, 3-{5-[(4-Chlorophenyl)(methyl)amino]picolinoyl}-5-[(4-hydroxybutyl)(2-pyridyl)-amino]benzoic acid]
164	CN(c1ccc(Cl)cc1)c1ccc(C(=O)c2cc(C(=O)O)cc(N(CC3CCCO3)c3ccccc3)c2)nc1 (centres unmarked) [9:41, 3-{5-[(4-Chlorophenyl)(methyl)amino]picolinoyl}-5-{phenyl[(2-tetrahydrofuryl)-methyl]amino}benzoic acid]
1550	CN(c1ccc(Cl)cc1)c1ccc(C(=O)c2cc(C(=O)O)cc(N(C)c3cccnc3)c2)nc1 [9:42, 3-{5-[(4-Chlorophenyl)(methyl)amino]picolinoyl}-5-[methyl(3-pyridyl)amino]-benzoic acid]
1820	CC(=O)N(c1cc(C(=O)O)cc(C(=O)c2ccc(N(C)c3ccc(Cl)cc3)cn2)c1)C1CCCCC1 [9:43, 3-{5-[(4-Chlorophenyl)(methyl)amino]picolinoyl}-5-(N-cyclohexylacetamido)-benzoic acid]
2550	CC(=O)N(c1cc(C(=O)O)cc(C(=O)c2ccc(N(C)c3ccc(Cl)cc3)cn2)c1)C1CCOCC1 [9:44, 3-{5-[(4-Chlorophenyl)(methyl)amino]picolinoyl}-5-[N-(4-tetrahydropyranyl)-acetamido]benzoic acid]
25	CN(c1ccc(Cl)cc1)c1ccc(C(=O)c2cc(C(=O)O)cc(N(CCCCO)c3ccccc3)c2)nc1 [9:45, 3-{5-[(4-Chlorophenyl)(methyl)amino]picolinoyl}-5-[(4-hydroxybutyl)(phenyl)-amino]benzoic acid]
122	CN(c1ccc(Cl)cc1)c1ccc(C(=O)c2cc(C(=O)O)cc(N(CCC3OCCO3)c3ccccc3)c2)nc1 [9:46, 3-{[2-(1,3-Dioxolan-2-yl)ethyl](phenyl)amino}-5-{5-[(4-chlorophenyl)(methyl)-amino]picolinoyl}benzoic acid]
60	CCOCCN(c1ccccc1)c1cc(C(=O)O)cc(C(=O)c2ccc(N(C)c3ccc(Cl)cc3)cn2)c1 [9:47, 3-{5-[(4-Chlorophenyl)(methyl)amino]picolinoyl}-5-[(2-ethoxyethyl)(phenyl)-amino]benzoic acid]
206	CN(c1ccc(Cl)cc1)c1ccc(C(=O)c2cc(Nc3ccccc3OC(F)(F)F)cc(C(=O)O)c2)cc1 [10:4, 3-{4-[(4-Chlorophenyl)(methyl)amino]benzoyl}-5-(2-(trifluoromethoxy)-phenylamino)benzoic acid]
210	CN(c1ccc(Cl)cc1)c1ccc(C(=O)c2cc(Nc3cc(F)ccc3F)cc(C(=O)O)c2)cc1 [10:5, 3-{4-[(4-Chlorophenyl)(methyl)amino]benzoyl}-5-(2,5-difluorophenylamino)-benzoic acid]
